From patent US4207326A, “Antimicrobial quaternary pyrazole derivatives” (Cilag-Chemie A.G., priority 1979, dated 1980)
Read-outs that look alike come from different tables or passages of the source.

Tests used:
A. corymbifera = test: Antifungal activity: Minimum Inhibitory Concentration; format: cell-based, Absidia corymbifera NCPF 2001; settings: for MIC: Lichtheimia corymbifera, read-out: Minimum Inhibitory Concentration
Experimental: (§1) The antimicrobial activity was determined by inoculation of the test microorganism into suitable growth media containing solutions of the compounds at concentrations of 100, 50, 10, 5, 1.0, 0.5 and 0.1 μg/ml. The reference antibiotics used were Gentamicin for the antibacterial tests and Amphotericin B for the antimycotic and antifungal tests. After incubation the antimicrobial activity was recorded as the Minimal Inhibitory Concentration (M.I.C.), i.e., the lowest concentration preventing macroscopically visible growth, for each test compound against each organism.
(§2) An initial solution of each formula (I) compound to be tested in sterile distilled water was prepared at a concentration of 1000 μg/ml. With appropriate dilutions using sterile distilled water, additional solutions were prepared at concentrations of 500, 100, 50, 10, 5 and 1 μg/ml.
A. corymbifera NCPF 2001
(§3) The A. corymbifera, A. fumigatus, S. schenkii, T. rubrum, T. mentagrophytes, M. canis and P. verrucosa strains were all maintained on Sabouraud-Dextrose Agar (Oxoid CM 41) by incubating for 14 days at 27° C. To prepare the inocula 30 ml volumes of Sabouraud-Liquid medium (Oxoid CM 147) were inoculated from the agar cultures and incubated at 27° C. until heavy uniform growth resulted. The mycelial growth was then broken up by shaking with glass beads.
(§4) 1 Ml aliquots were removed from each of the cultures for the purpose of making viable counts and the cultures were then held at 4° C. The viable counts were made by preparing serial ten-fold dilutions of the cultures in sterile physiological saline and spreading on plates of Sabouraud-Dextrose Agar (Oxoid CM 41) which were then incubated at 27° C. for 14 days. When the viable counts had confirmed that each of the inocula contained approximately 10^6 colony forming units (C.F.U.) per ml the cultures were withdrawn from the refrigerator and used as the inocula for the tests.
(§5) (c) For the tests on each of the remaining seven strains and each of the test and reference compounds, a series of 8 tubes containing 4.5 ml volumes of Sabouraud-Liquid Medium (Oxoid CM 147) were prepared. To 7 of these were added 0.5 ml volumes of the final solutions of the test compounds, giving final concentrations in the broths of 100, 50, 10, 5, 1.0, 0.5 and 0.1 μg/ml. To the eighth tube in each series was added 0.5 ml of the solvent used and diluted as for the preparation of the 500 μg/ml solution of the compound. This tube was used as a growth control. The tubes were then inoculated with 0.1 ml aliquots of the inocula prepared as in "(b) Fungi" above. The tubes were then incubated at 27° C. with continuous shaking for a period of one week. The tubes were then examined for evidence of growth as shown by the presence of mycelial growth in the medium and the lowest concentration of the test compound which prevented fungal growth was recorded as the Minimal Inhibitory Concentration. This test procedure was carried out on two separate days.

C. neoformans = test: Antimycotic activity: Minimum Inhibitory Concentration; format: cell-based, Cryptococcus neoformans NCPF 3184; settings: pH 5.5, 30° C., 72 hours; for MIC: Cryptococcus neoformans; for Minimum Inhibitory Concentrations: C. neoformans
Experimental: as §1, §2
The C. neoformans was also maintained on Sabouraud-Dextrose Agar (Oxoid CM 41), but in this case cultures for the preparation of the inoculum were incubated on this agar at 30° C. for 48 hours. A 4.5 ml volume of citric acid-phosphate buffer pH 5.5 plus Yeast-Nitrogen Base (Difco-0392-15) was then inoculated from the agar culture and incubated at 30° C. for 48 hours. A 0.1 ml aliquot of this culture was then added to 100 ml sterile physiological saline to give the final inoculum.
(b) For the tests on each of the C. albicans, C. tropicalis and C. neoformans strains and each of the test and reference compounds, a series of 8 tubes containing 4.5 ml volumes of citric acid-phosphate buffer pH 5.5 plus Yeast-Nitrogen Base (Difco 0392-15) were prepared. To 7 of these were added 0.5 ml volumes of the final solutions of the test compounds, giving final concentrations in the broths of 100, 50, 10, 5, 1.0, 0.5 and 0.1 μg/ml. To the eighth tube in each series was added 0.5 ml of the solvent used and diluted as for the preparation of the 1000 μg/ml solution of the compound. This tube was used as the growth control. The tubes were then inoculated with 0.1 ml aliquots of the inocula prepared as in "(b) Fungi" above. The tubes inoculated with the C. albicans and C. tropicalis were inoculated at 37° C. for 72 hours and the tubes inoculated with the C. neoformans straim were incubated at 30° C. for 72 hours. […] The tubes were then examined for evidence of growth as shown by turbidity of the medium and the lowest concentration of the test compound which prevented fungal growth was recorded as the Minimal Inhibitory Concentration. This test procedure was carried out on two separate days.

S. aureus = test: Antibacterial activity: Minimum Inhibitory Concentration; format: cell-based, Staphylococcus aureus ATCC 6538; settings: 24 hours; for MIC: Staphylococcus aureus
Experimental: as §1, §2
(§6) They were cultured and maintained on Tryptone Soy Agar (Oxoid CM 131), with the addition of 10% horse blood for the S. pyogenes.
(§7) To prepare the organisms as inocula for the test, slopes of this medium were streaked with the organisms and incubated at 37° C. for 24 hours. 4.5 Ml volumes of Brian-Heart Infusion Broth (Oxoid CM 225) were then inoculated with a platinum loop from the agar slope cultures and incubated for 24 hours at 37° C. The final inocula were then prepared by adding 0.1 ml aliquots of the Brain-Heart Infusion Broth cultures to 100 ml volumes of sterile physiological saline.
(§8) (a) For the test on each of the bacterial strains and each of the test and reference compounds, a series of 8 tubes containing 4.5 ml volumes of Brain-Heart Infusion Broth (Oxoid CM 225) were prepared. To 7 of these were added 0.5 ml volumes of the final solutions of the test compouns, giving final concentrations in the broths of 100, 50, 10, 5, 1.0, 0.5 and 0.1 μg/ml. To the eighth tube in each series was added 0.5 ml of the solvent used and diluted as for the preparation of the 1000 μg/ml solution of the compound. This tube was used as the growth control. The tubes were inoculated with 0.02 ml aliquots of the inocula prepared in accordance with "(a) Bacteria" above, and incubated at 37° C. for 24 hours. The tubes were then examined for evidence of bacterial growth as shown by turbidity of the medium and the lowest concentration of the test compound which prevented bacterial growth was recorded as the Minimal Inhibitory Concentration. This test procedure was carried out on two separate days.

S. schenkii = test: Antifungal activity: Minimum Inhibitory Concentration; format: cell-based, Sporotrichon schenkii NCPF 3182; settings: for MIC: read-out: Minimum Inhibitory Concentration
Experimental: as §1, §2, §3, §4, §5

P. verrucosa = test: as above; format: cell-based, Phialophore verrucosa NCPF 1119; settings: P. verrucosa, 27° C., one week; for MIC: Phialophora verrucosa, read-out: Minimum Inhibitory Concentration
Experimental: as §1, §2, §3, §4, §5

P. mirabilis = test: Antibacterial activity: Minimum Inhibitory Concentration; format: cell-based, Proteus mirabilis NCTC 8559; settings: for MIC: Proteus mirabilis, read-out: Minimum Inhibitory Concentration
Experimental: as §1, §2, §6, §7, §8

[1] = A. corymbifera, Day 2, 27° C., one week
[2] = S. schenkii, Day 2, 27° C., one week
[3] = A. corymbifera, Day 1, 27° C., one week
[4] = pH 5.5, C. neoformans, Day 1, read-out: Minimum Inhibitory Concentrations
[5] = pH 5.5, C. neoformans, Day 2, read-out: Minimum Inhibitory Concentrations
[6] = S. schenkii, Day 1, 27° C., one week
[7] = P. mirabilis, Day 1, 37° C., 24 hours
[8] = P. mirabilis, Day 2, 37° C., 24 hours

Compound	MIC (S. aureus; Day 1, 37° C.)	MIC (S. aureus; Day 2, 37° C.)	MIC (A. corymbifera; [3])	MIC (A. corymbifera; [1])	MIC (C. neoformans; [4])	MIC (C. neoformans; [5])	MIC (S. schenkii; [6])	MIC (S. schenkii; [2])	MIC (P. verrucosa; Day 1)	MIC (P. verrucosa; Day 2)	MIC (P. mirabilis; [7])	MIC (P. mirabilis; [8])	other results
CCCCCCCCCCCCCCCC[n+]1c(C)cc(C)n1C.Cc1ccc(S(=O)(=O)[O-])cc1 [Example 6-C, 1-hexadecyl-2,3,5-trimethylpyrazolium p-toluene sulfonate]	0.5 µg/mL	0.5 µg/mL	–	–	–	–	–	–	–	–	–	–	Minimum Inhibitory Concentration (A. corymbifera; [1]): 10 µg/mL; MIC (A. corymbifera): 10 µg/mL; MIC (C. neoformans; pH 5.5, read-out: Minimum Inhibitory Concentrations, C. neoformans, Day 1): 1 µg/mL; MIC (C. neoformans; pH 5.5, read-out: Minimum Inhibitory Concentrations, C. neoformans, Day 2): 1 µg/mL; Minimum Inhibitory Concentration (S. schenkii; [2]): 5 µg/mL; MIC (S. schenkii): 5 µg/mL; Minimum Inhibitory Concentration (P. verrucosa; Day 2): 5 µg/mL; MIC (P. mirabilis): 50 µg/mL
CCCCCCCCCCCCCCCCn1ccc[n+]1C [Example 3-D, 1-hexadecyl-2-methyl-pyrazolium methosulfate]	0.5 µg/mL	0.5 µg/mL	10 µg/mL	5 µg/mL	5 µg/mL	1 µg/mL	5 µg/mL	10 µg/mL	5 µg/mL	5 µg/mL	10 µg/mL	50 µg/mL	–
CCCCCCCCCCCCCCn1ccc[n+]1C [Example 3-G, 2-methyl-1-tetradecyl-pyrazolium methosulfate]	0.5 µg/mL	0.5 µg/mL	10 µg/mL	10 µg/mL	1 µg/mL	1 µg/mL	5 µg/mL	10 µg/mL	5 µg/mL	5 µg/mL	50 µg/mL	50 µg/mL	–
2,3(5)-dimethyl-1-hexadecyl-pyrazolium methosulfate [Example 9]	–	–	–	–	–	–	–	–	–	–	–	–	Minimum Inhibitory Concentration (A. corymbifera; [3]): 10 µg/mL; Minimum Inhibitory Concentration (A. corymbifera; [1]): 10 µg/mL; Minimum Inhibitory Concentrations (C. neoformans; Day 1): 1 µg/mL; Minimum Inhibitory Concentrations (C. neoformans; Day 2): 0.5 µg/mL; Minimum Inhibitory Concentration (S. aureus; Day 1, 37° C.): 0.5 µg/mL; Minimum Inhibitory Concentration (S. aureus; Day 2, 37° C.): 0.5 µg/mL; Minimum Inhibitory Concentration (S. schenkii; [6]): 5 µg/mL; Minimum Inhibitory Concentration (S. schenkii; [2]): 5 µg/mL; Minimum Inhibitory Concentration (P. verrucosa; Day 1): 5 µg/mL; Minimum Inhibitory Concentration (P. verrucosa; Day 2): 10 µg/mL; Minimum Inhibitory Concentration (P. mirabilis; [7]): 10 µg/mL; Minimum Inhibitory Concentration (P. mirabilis; [8]): 10 µg/mL
CCCCCCCCCCCCCCCCn1c(C)cc(C)[n+]1C [Example 2, 1-hexadecyl-2,3,5-trimethyl-pyrazolium methosulfate]	0.5 µg/mL	0.5 µg/mL	50 µg/mL	50 µg/mL	0.5 µg/mL	0.5 µg/mL	10 µg/mL	10 µg/mL	5 µg/mL	10 µg/mL	10 µg/mL	10 µg/mL	–
CCCCCCCCCCCCCC[n+]1c(C)cc(C)n1Cc1ccc([N+](=O)[O-])cc1.[Br-] [Example 6-D, 3,5-dimethyl-2(4-nitrobenzyl)-1-tetradecyl-pyrazolium bromide]	1 µg/mL	0.5 µg/mL	50 µg/mL	50 µg/mL	0.5 µg/mL	0.5 µg/mL	5 µg/mL	5 µg/mL	10 µg/mL	10 µg/mL	50 µg/mL	50 µg/mL	–
CCCCCCCCCCCC[n+]1c(C)cc(C)n1Cc1ccc(Cl)cc1Cl.[Br-] [Example 6-B, 2-(2,4-dichlorobenzyl)-3,5-dimethyl-1-dodecyl-pyrazolium bromide]	0.5 µg/mL	0.5 µg/mL	10 µg/mL	10 µg/mL	1 µg/mL	1 µg/mL	1 µg/mL	1 µg/mL	5 µg/mL	5 µg/mL	50 µg/mL	50 µg/mL	–
CCCCCCCCCCCCn1ccc[n+]1C [Example 3-E, 1-dodecyl-2-methy-pyrazolium methosulfate]	1 µg/mL	1 µg/mL	100 µg/mL	100 µg/mL	1 µg/mL	5 µg/mL	50 µg/mL	10 µg/mL	5 µg/mL	10 µg/mL	100 µg/mL	100 µg/mL	–
C=CCn1c(C)cc(C)[n+]1CCCCCCCCCCCCCCCC.[Br-] [Example 7, 2-allyl-3,5-dimethyl-1-hexadecyl-pyrazoliumbromide]	0.5 µg/mL	0.5 µg/mL	5 µg/mL	5 µg/mL	1 µg/mL	0.5 µg/mL	5 µg/mL	5 µg/mL	5 µg/mL	5 µg/mL	10 µg/mL	50 µg/mL	–
